Tests used:
[1] = Sniffing Analysis of uncombusted tobacco, Quantitative Descriptive Profiling (ISO 13299)
Protocol: Further samples were analyzed using “Sniffing Analysis”, an applied sensory method for the assessment of characterizing flavors of standard products, by sniffing the tobacco itself, without combusting it, using a method as provided in the international standard ISO 13299. The data is set out in Tables 4 and 5, showing the results of Quantitative Descriptive Profiling (QDP), providing a score of between 0 and 5 for perception of the different tobacco typical and non-tobacco typical flavor notes
A critical intensity of a Mean >1.0 is highlighted in bold in Tables 4 and 5. On the 0-5 category scale, none of the prototype cigarette of “W53” or “WS23” show any critical intensity above 1.0 for the Non-Tobacco Typical Flavor Notes (see Table 5).

[2] = Smoking sensory evaluation of cigarettes by testers (1 to 10 scale, N=28); assay type: in vivo; details: smoked cigarette
Protocol: Test cigarettes were produced using the following amounts of WS-3 applied to the aerosol-generating material in the tobacco rod in the form of a solution:
Various cigarettes were prepared and smoked so that the (1) menthol-family flavor intensity; (2) cooling sensation; and (3) tobacco taste intensity could each be evaluated by testers on a 1 to 10 scale (N=28).

[3] = Stability and migration in the delivery system; assay type: physicochemical
Description: The menthol in a pack of mentholated cigarettes, for example, is contained by an outer plastic packaging film. Within this packaging film, the menthol migrates and equilibrates. However, once this outer packaging film is removed (upon opening the pack for the first time), the menthol will begin to be lost. This migration and loss of the volatile menthol needs to be factored in when deciding how much menthol to include in each delivery system and where to apply it. It also means that the menthol delivery may vary depending on where the menthol is located when the delivery system is used.
This means that greater significance is attached to the amount of WS-3 incorporated into the delivery system, as well as where and how it is incorporated.
In some embodiments, the cooling agent WS-3 is present in the aerosol-generating material. In some embodiments, the cooling agent WS-3 is applied to the aerosol-generating material. As the delivery system is used, the WS-3 is volatilized and is entrained in the aerosol flow through the delivery system. […] This is despite the high temperatures seen in the rods of aerosol-generating material in combustible aerosol provision system, such as cigarettes. This is also despite the relatively low volatility of the WS-3 compared to some cooling agents used in delivery systems, such as menthol.

[4] = Smoking sensory evaluation of cigarettes by testers (1 to 10 scale, N=28); assay type: in vivo; details: 1 mg
[5] = Solubility in solvents; assay type: physicochemical

CC1CCC(C(C)C)C(O)C1 (stereo not drawn) [Menthol]
Non-Tobacco Typical Flavor Note: Alcoholic ([1]; 4 mg, score 0-5): .1 | Non-Tobacco Typical Flavor Note: Cacao ([1]; 4 mg, score 0-5): .0 | Non-Tobacco Typical Flavor Note: Caramel ([1]; 4 mg, score 0-5): .1 | Non-Tobacco Typical Flavor Note: Citrus ([1]; 4 mg, score 0-5): .0 | Non-Tobacco Typical Flavor Note: Floral ([1]; 4 mg, score 0-5): .0 | Non-Tobacco Typical Flavor Note: Fruity ([1]; 4 mg, score 0-5): .0 | Non-Tobacco Typical Flavor Note: Honey ([1]; 4 mg, score 0-5): .1 | Non-Tobacco Typical Flavor Note: Licorice ([1]; 4 mg, score 0-5): .0 | Non-Tobacco Typical Flavor Note: Minty ([1]; 4 mg, score 0-5): .9 | Non-Tobacco Typical Flavor Note: Spicy ([1]; 4 mg, score 0-5): .0 | Non-Tobacco Typical Flavor Note: Vanilla ([1]; 4 mg, score 0-5): .1 | Tobacco Typical Flavor Note: Animalic ([1]; 4 mg, score 0-5): 0.0 | Tobacco Typical Flavor Note: Black Tea ([1]; 4 mg, score 0-5): 0.0 | Tobacco Typical Flavor Note: Earthy ([1]; 4 mg, score 0-5): 0.0 | Tobacco Typical Flavor Note: Haylike ([1]; 4 mg, score 0-5): 0.0 | Tobacco Typical Flavor Note: Roasted ([1]; 4 mg, score 0-5): 0.1 | Tobacco Typical Flavor Note: Smoky ([1]; 4 mg, score 0-5): 0.0 | Tobacco Typical Flavor Note: Tobacco ([1]; 4 mg, score 0-5): 0.6 | Tobacco Typical Flavor Note: Woody ([1]; 4 mg, score 0-5): 0.1 | Non-Tobacco Typical Flavor Note: Minty ([1]; 4 mg, score 0-5, listed as menthol): 4.9 | Cooling Sensation ([2]; 1.5 mg menthol (low)): 4.8 | Menthol-Family Flavor Intensity ([2]; 1.5 mg menthol (low)): 4.1 | Tobacco Taste Intensity ([2]; 1.5 mg menthol (low)): 3.1 | Cooling Sensation ([2]; 3.5 mg menthol (medium)): 7.6 | Menthol-Family Flavor Intensity ([2]; 3.5 mg menthol (medium)): 7.0 | Tobacco Taste Intensity ([2]; 3.5 mg menthol (medium)): 2.1 | Cooling Sensation ([2]; 5.0 mg menthol (high)): 8.8 | Menthol-Family Flavor Intensity ([2]; 5.0 mg menthol (high)): 8.0 | Tobacco Taste Intensity ([2]; 5.0 mg menthol (high)): 1.4 | Migration within the delivery system or packaging during storage [3]: highly volatile and migrates

CCNC(=O)C1CC(C)CCC1C(C)C (stereo not drawn) [WS-3, N-ethyl-2-(isopropyl)-5-methylcyclohexane carboxamide]
Non-Tobacco Typical Flavor Note: Alcoholic ([1]; 1 mg, score 0-5): .0 | Non-Tobacco Typical Flavor Note: Cacao ([1]; 1 mg, score 0-5): .2 | Non-Tobacco Typical Flavor Note: Caramel ([1]; 1 mg, score 0-5): .1 | Non-Tobacco Typical Flavor Note: Citrus ([1]; 1 mg, score 0-5): .0 | Non-Tobacco Typical Flavor Note: Floral ([1]; 1 mg, score 0-5): .0 | Non-Tobacco Typical Flavor Note: Fruity ([1]; 1 mg, score 0-5): .1 | Non-Tobacco Typical Flavor Note: Honey ([1]; 1 mg, score 0-5): .1 | Non-Tobacco Typical Flavor Note: Licorice ([1]; 1 mg, score 0-5): .0 | Non-Tobacco Typical Flavor Note: Minty ([1]; 1 mg, score 0-5): .0 | Non-Tobacco Typical Flavor Note: Spicy ([1]; 1 mg, score 0-5): .1 | Non-Tobacco Typical Flavor Note: Vanilla ([1]; 1 mg, score 0-5): .3 | Tobacco Typical Flavor Note: Animalic ([1]; 1 mg, score 0-5): 0.1 | Tobacco Typical Flavor Note: Black Tea ([1]; 1 mg, score 0-5): 0.0 | Tobacco Typical Flavor Note: Earthy ([1]; 1 mg, score 0-5): 0.3 | Tobacco Typical Flavor Note: Haylike ([1]; 1 mg, score 0-5): 1.1 | Tobacco Typical Flavor Note: Roasted ([1]; 1 mg, score 0-5): 0.7 | Tobacco Typical Flavor Note: Smoky ([1]; 1 mg, score 0-5): 0.0 | Tobacco Typical Flavor Note: Tobacco ([1]; 1 mg, score 0-5): 3.9 | Tobacco Typical Flavor Note: Woody ([1]; 1 mg, score 0-5): 1.3 | Overall flavor conclusion of smoking and sniffing analysis [4]: provides a cooling sensation without menthol flavor | Cooling Sensation ([2]; 1.0 mg cooling agent): significant higher than both control products | Solubility in solvents versus humectants ([5]; alcohol or DMSO versus propylene glycol): higher in the solvents than in humectants such as propylene glycol | Solubility ([5]; alcohol, such as ethanol, and DMSO): readily soluble | Stability in the aerosol ([3]; high temperatures in rods of combustible aerosol provision systems): stable molecule and is not transformed and does not react with other chemicals in the aerosol | Migration within the delivery system or packaging during storage [3]: does not migrate

CNC(=O)C(C)(C(C)C)C(C)C [WS-23]
Non-Tobacco Typical Flavor Note: Alcoholic ([1]; 1 mg, score 0-5): .0 | Non-Tobacco Typical Flavor Note: Cacao ([1]; 1 mg, score 0-5): .1 | Non-Tobacco Typical Flavor Note: Caramel ([1]; 1 mg, score 0-5): .1 | Non-Tobacco Typical Flavor Note: Citrus ([1]; 1 mg, score 0-5): .2 | Non-Tobacco Typical Flavor Note: Floral ([1]; 1 mg, score 0-5): .1 | Non-Tobacco Typical Flavor Note: Fruity ([1]; 1 mg, score 0-5): .2 | Non-Tobacco Typical Flavor Note: Honey ([1]; 1 mg, score 0-5): .1 | Non-Tobacco Typical Flavor Note: Licorice ([1]; 1 mg, score 0-5): .0 | Non-Tobacco Typical Flavor Note: Minty ([1]; 1 mg, score 0-5): .7 | Non-Tobacco Typical Flavor Note: Spicy ([1]; 1 mg, score 0-5): .0 | Non-Tobacco Typical Flavor Note: Vanilla ([1]; 1 mg, score 0-5): .3 | Tobacco Typical Flavor Note: Animalic ([1]; 1 mg, score 0-5): 0.1 | Tobacco Typical Flavor Note: Black Tea ([1]; 1 mg, score 0-5): 0.1 | Tobacco Typical Flavor Note: Earthy ([1]; 1 mg, score 0-5): 0.3 | Tobacco Typical Flavor Note: Haylike ([1]; 1 mg, score 0-5): 0.9 | Tobacco Typical Flavor Note: Roasted ([1]; 1 mg, score 0-5): 0.7 | Tobacco Typical Flavor Note: Smoky ([1]; 1 mg, score 0-5): 0.1 | Tobacco Typical Flavor Note: Tobacco ([1]; 1 mg, score 0-5): 3.5 | Tobacco Typical Flavor Note: Woody ([1]; 1 mg, score 0-5): 1.0 | Non-Tobacco Typical Flavor Note: Minty ([1]; 1 mg, score 0-5, listed as WS23): 0.7 | Overall flavor conclusion of smoking and sniffing analysis [4]: very low, but detectable minty/menthol flavor | Menthol-Family Flavor Intensity ([2]; 1.0 mg cooling agent): 2.2 | Tobacco Taste Intensity ([2]; 1.0 mg cooling agent): 3.9

Reference: patent US20230157350A1, “DELIVERY SYSTEMS AND METHODS OF MAKING THE SAME” (British American Tobacco (Investments) Limited, priority 2020, published 2023)
